Measured values from patent US11179412B2, “Methods of treating conditions involving elevated inflammatory response” (University of Pittsburgh—Of the Commonwealth System of …, priority 2017, dated 2021).
Structures can show the parent of a compound that is named as a salt.

Tested on: STING activation (IFNβ release) in iBMDMs
Assay: IFNβ release ELISA after STING ligand (or LPS) stimulation, iBMDMs
Format: cell-based, mouse
Conditions: iBMDMs; 3′3′-cGAMP 10 μg/ml, 16 hours; compound 10 μM
Excerpt: Commercially available enzyme-linked immunosorbent assay (ELISA) kits were used to measure the concentrations of mouse IFNβ (Thermo Fisher Scientific) or human IFNβ (Thermo Fisher Scientific) in culture medium according to the manufacturer's instructions. […]

With `Nc1ncnc2n[nH]c(Nc3ccc(F)cc3)c12` [CGP 57380] the “fold increase in IFN-β release” value was 0.54 fold.

`COc1cc2c(cc1OC)CN(CCc1ccc(NC(=O)c3cc(OC)c(OC)cc3NC(=O)c3cnc4ccccc4c3)cc1)CC2` [Tariquidar] was tested, and the “fold increase in IFN-β release” value was 0.77 fold.

For `O=C1CC[C@@]2(O)[C@H]3Cc4ccc(O)c5c4[C@@]2(CCN3CC2CC2)[C@H]1O5` [Naltrexone HCl], the “fold increase in IFN-β release” value was 3.12 fold.

For `O[C@@H](COc1cccc2ncccc12)CN1CCN([C@@H]2c3ccccc3[C@@H]3[C@H](c4ccccc42)C3(F)F)CC1` [Zosuquidar (LY335979) 3HCl, Zosuquidar], the “fold increase in IFN-β release” value was 4.10 fold.

Pifithrin-μ was tested, and the “fold increase in IFN-β release” value was 0.16 fold.

With `CCOC(=O)C1=C(COCCN)NC(C)=C(C(=O)OC)C1c1ccccc1Cl` (centres unmarked) [Amlodipine] the “fold increase in IFN-β release” value was 1.46 fold.

In the case of `CCn1c(N)c(C(=O)NC)c(=O)c2ccc(C#C[C@@](C)(O)COC)nc21` [SAR131675], the “fold increase in IFN-β release” value is reported as 1.13 fold.

`CCC(CC)(NC(=O)C(C)C)C(=O)N[C@@H](CCCN=C(N)N)C(=O)NC1(C(=O)NC(c2ccc(F)cc2)c2ccc(F)cc2)CCCC1` [MM-102] was tested, and the “fold increase in IFN-β release” value was 2.32 fold.

With `COc1cc(OC)c(/C=C/S(=O)(=O)Cc2ccc(OC)c(NCC(=O)O)c2)c(OC)c1` [Rigosertib (ON-01910), Rigosertib] the “fold increase in IFN-β release” value was 0.96 fold.

In the case of `Oc1ccc(Nc2nc(-c3ccc(Cl)cc3)cs2)cc1` [SKI II], the “fold increase in IFN-β release” value is reported as 0.49 fold.

With `CC(=O)Nc1cccc2c1c(Sc1ccc(Cl)cc1)c(C)n2CC(=O)O` [AZD1981] the “fold increase in IFN-β release” value was 3.11 fold.

In the case of `O=C(O)c1ccc(Nc2ncc3c(n2)-c2ccc(Cl)cc2C(c2c(F)cccc2F)=NC3)cc1` [MLN8054], the “fold increase in IFN-β release” value is reported as 0.77 fold.

In the case of `CC(C)c1ccc(NC(=O)Cn2cnc3c2c(=O)n(C)c(=O)n3C)cc1` [HC-030031], the “fold increase in IFN-β release” value is reported as 1.05 fold.

With `COc1ccc(COc2ccc(Cc3cnc(N)nc3N)cc2OC)cc1` [GW2580] the “fold increase in IFN-β release” value was 1.21 fold.

`Cc1sc2c(c1C)C(c1ccc(Cl)cc1)=N[C@@H](CC(=O)Nc1ccc(O)cc1)c1nnc(C)n1-2` [OTX015] was tested, and the “fold increase in IFN-β release” value was 0.43 fold.

In the case of `COc1ccc(C2CNC(=O)C2)cc1OC1CCCC1` (centres unmarked) [Rolipram], the “fold increase in IFN-β release” value is reported as 1.85 fold.

`C[C@@H](NCCCc1cccc(C(F)(F)F)c1)c1cccc2ccccc12` [Cinacalcet HCl] was tested, and the “fold increase in IFN-β release” value was 0.55 fold.

For `C[S+]([O-])c1ccc(-c2nc(-c3ccc(F)cc3)c(-c3ccncc3)[nH]2)cc1` (centres unmarked) [SB203580], the “fold increase in IFN-β release” value was 0.35 fold.

For `O=c1[nH]c2ccc(Cl)cc2c(N[C@@H]2CN3CCC2CC3)c1-c1nc2ccccc2[nH]1` [CHIR-124], the “fold increase in IFN-β release” value was 1.30 fold.

For `C[C@H](NC(=O)[C@@H](O)c1cc(F)cc(F)c1)C(=O)N[C@@H]1C(=O)N(C)c2ccccc2-c2ccccc21` [LY411575], the “fold increase in IFN-β release” value was 0.26 fold.

In the case of `COc1ccc(C(=O)N2CCCC2=O)cc1` [Aniracetam], the “fold increase in IFN-β release” value is reported as 1.02 fold.

In the case of `Cc1[nH]c(/C=C2\C(=O)Nc3ccc(S(=O)(=O)Cc4c(Cl)cccc4Cl)cc32)c(C)c1C(=O)N1CCC[C@@H]1CN1CCCC1` [PHA-665752], the “fold increase in IFN-β release” value is reported as 0.43 fold.

`NC(=O)Nc1cc(-c2cccc(F)c2)sc1C(=O)N[C@H]1CCCNC1` [AZD7762] was tested, and the “fold increase in IFN-β release” value was 0.45 fold.

For SN-38, the “fold increase in IFN-β release” value was 1.72 fold.

With `CCOC(=O)c1ccc(NC2CCCCC2)c(N)c1` [Ferrostatin-1 (Fer-1), Ferrostatin-1] the “fold increase in IFN-β release” value was 2.54 fold.

In the case of `COc1cccc2c1C(=O)c1c(O)c3c(c(O)c1C2=O)C[C@@](O)(C(C)=O)C[C@@H]3O[C@H]1C[C@H](N)[C@H](O)[C@H](C)O1` [Daunorubicin HCl], the “fold increase in IFN-β release” value is reported as 0.11 fold.

For `CN1CCC(CNc2ccc3ncc(-c4cccc(OC(F)(F)F)c4)n3n2)CC1` [SGI-1776 free base], the “fold increase in IFN-β release” value was 0.65 fold.

For `O=C1[C@H](Cc2ccc(O)cc2)N2C(=O)CCN(C(=O)NCc3ccccc3)[C@H]2CN1Cc1cccc2ccccc12` [ICG-001], the “fold increase in IFN-β release” value was 0.10 fold.

In the case of `Oc1ccc2ccccc2c1SSc1c(O)ccc2ccccc12` [IPA-3], the “fold increase in IFN-β release” value is reported as 0.35 fold.

For `C/C(=C\C(=O)Nc1ccccc1C(=O)O)c1ccc2ccccc2c1` [BIBR 1532], the “fold increase in IFN-β release” value was 2.10 fold.

`CNC(=C[N+](=O)[O-])NCCSCc1ccc(CN(C)C)o1` [Ranitidine] was tested, and the “fold increase in IFN-β release” value was 2.87 fold.

With `Br.COc1cc(Br)c(Nc2nc(-c3c(C)nc4ncccn34)cs2)c(Br)c1` [PTC-209 HBr] the “fold increase in IFN-β release” value was 0.27 fold.

For `Cn1cc(-c2ccc3c(c2)CCN3C(=O)Cc2cccc(C(F)(F)F)c2)c2c(N)ncnc21` [GSK2606414], the “fold increase in IFN-β release” value was 1.40 fold.

In the case of `Cc1ccc(-n2nccn2)c(C(=O)N2CCN(c3nc4cc(Cl)ccc4o3)CC[C@H]2C)c1` [Suvorexant (MK-4305), Suvorexant], the “fold increase in IFN-β release” value is reported as 1.54 fold.

With `Nc1cccc2c1C(=O)N(C1CCC(=O)NC1=O)C2=O` (centres unmarked) [Pomalidomide] the “fold increase in IFN-β release” value was 2.12 fold.

`Cc1cc(C(C)(C)C)c(O)c(C)c1CC1=NCCN1` [Oxymetazoline HCl] was tested, and the “fold increase in IFN-β release” value was 1.16 fold.

With `O=c1ncn2nc(Sc3ccc(F)cc3F)ccc2c1-c1c(Cl)cccc1Cl` [VX-745] the “fold increase in IFN-β release” value was 6.18 fold.

With `Nc1ccc(C(=O)[O-])c(O)c1.[Na+]` [Sodium 4-Aminosalicylate] the “fold increase in IFN-β release” value was 0.74 fold.

In the case of `CC1(COc2ccc3c(c2)ncn3-c2ccc3cccc(N4CCC(N)CC4)c3n2)COC1` [Crenolanib (CP-868596), Crenolanib], the “fold increase in IFN-β release” value is reported as 0.32 fold.

For `CCO.N#CC(=C(/N)Sc1ccccc1N)/C(C#N)=C(\N)Sc1ccccc1N` [U0126-EtOH], the “fold increase in IFN-β release” value was 0.70 fold.

`NC(=O)C1CCCc2c1[nH]c1ccc(Cl)cc21` (centres unmarked) [EX 527 (Selisistat), Selisistat] was tested, and the “fold increase in IFN-β release” value was 0.98 fold.

For `CN[C@H]1CC[C@@H](c2ccc(Cl)c(Cl)c2)c2ccccc21` [Sertraline HCl], the “fold increase in IFN-β release” value was 0.22 fold.

With `Cc1c(-c2ccc(O)cc2)n(Cc2ccc(OCCN3CCCCCC3)cc2)c2ccc(O)cc12` [Bazedoxifene HCl] the “fold increase in IFN-β release” value was 0.15 fold.

`O=C(O)c1cc2cccc([N+](=O)[O-])c2[nH]1` [CRT0044876] was tested, and the “fold increase in IFN-β release” value was 2.75 fold.

With `CCOC(=O)N1CCC(=C2c3ccc(Cl)cc3CCc3cccnc32)CC1` [Loratadine] the “fold increase in IFN-β release” value was 3.65 fold.

In the case of `O=C(O)c1ccc(N2C(=O)/C(=C\c3ccc(-c4ccc([N+](=O)[O-])cc4)o3)C=C2c2ccccc2)cc1` [4E1 RCat], the “fold increase in IFN-β release” value is reported as 2.36 fold.

`Nc1ncnc2c1c(-c1cccc(OCc3ccccc3)c1)cn2C1CC(CN2CCCC2)C1` (centres unmarked) [NVP-ADW742] was tested, and the “fold increase in IFN-β release” value was 0.61 fold.

For `O=C(O)CCc1ccc(NCc2cccc(Oc3ccccc3)c2)cc1` [GW9508], the “fold increase in IFN-β release” value was 0.80 fold.

`Cc1cc(-c2ccc(CC(=O)Nc3ccc(-c4cccnc4)cc3)cc2)ccn1` [Wnt-059 (C59)] was tested, and the “fold increase in IFN-β release” value was 0.13 fold.

In the case of `CC1=C(/C=C/C(C)=C/C=C/C(C)=C\C(=O)O)C(C)(C)CCC1` [Isotretinoin], the “fold increase in IFN-β release” value is reported as 0.10 fold.

In the case of `CNc1nc(Nc2cnn([C@H]3CCN(C4COC4)C[C@@H]3F)c2Cl)ncc1C(F)(F)F` [GNE-9605], the “fold increase in IFN-β release” value is reported as 1.10 fold.

`CCOC(=O)C1=C(C)NC(C)=C(C(=O)OC)C1c1cccc(Cl)c1Cl` (centres unmarked) [Felodipine] was tested, and the “fold increase in IFN-β release” value was 0.69 fold.

In the case of `CC(C)(C)c1cnc(CSc2cnc(NC(=O)C3CCNCC3)s2)o1` [SNS-032 (BMS-387032)], the “fold increase in IFN-β release” value is reported as 1.01 fold.

For HSP990 (NVP-HSP990), the “fold increase in IFN-β release” value was 0.26 fold.

With `CC(C)(C)c1cc(C(C)(C)C)c(NC(=O)c2c[nH]c3ccccc3c2=O)cc1O` [Ivacaftor (VX-770), Ivacaftor] the “fold increase in IFN-β release” value was 1.27 fold.

With `CC(C)c1onc(-c2c(Cl)cccc2Cl)c1COc1ccc(/C=C/c2cccc(C(=O)O)c2)c(Cl)c1` [GW4064] the “fold increase in IFN-β release” value was 1.26 fold.

In the case of `Cc1cnc(NC(=O)Nc2cc(Br)c(C)cc2OC[C@@H]2CNCCO2)cn1` [LY2603618], the “fold increase in IFN-β release” value is reported as 1.08 fold.

For `Cl.NCc1c[nH]c(=S)n1[C@@H]1CCc2c(F)cc(F)cc2C1` [(R)-Nepicastat HCl], the “fold increase in IFN-β release” value was 2.13 fold.

`O=C(/C=C/c1ccccc1)NC(NC(=S)Nc1ccc(Cl)cc1)C(Cl)(Cl)Cl` (centres unmarked) [Sal003] was tested, and the “fold increase in IFN-β release” value was 0.18 fold.

`Cc1[nH]c2ccccc2c1CCNCc1ccc(/C=C/C(=O)NO)cc1` [Panobinostat (LBH589), Panobinostat] was tested, and the “fold increase in IFN-β release” value was 0.61 fold.

In the case of `O=S(=O)(c1ccccc1)N(CC(F)(F)F)c1ccc(C(O)(C(F)(F)F)C(F)(F)F)cc1` [T0901317], the “fold increase in IFN-β release” value is reported as 1.49 fold.

For `CC(C)c1cc(-c2n[nH]c(=O)n2-c2ccc3c(ccn3C)c2)c(O)cc1O` [Ganetespib (STA-9090), Ganetespib], the “fold increase in IFN-β release” value was 1.80 fold.

For `CC(C)NCC(O)COc1ccc(COCCOC(C)C)cc1` (centres unmarked) [Bisoprolol fumarate], the “fold increase in IFN-β release” value was 0.70 fold.

In the case of `CC(C)n1c(/C=C/C(O)CC(O)CC(=O)O)c(-c2ccc(F)cc2)c2ccccc21` (centres unmarked) [Fluvastatin Sodium], the “fold increase in IFN-β release” value is reported as 0.32 fold.

For `Cc1cc([C@@H](C)Nc2ccccc2C(=O)O)c2nc(N3CCOCC3)cc(=O)n2c1` [AZD6482], the “fold increase in IFN-β release” value was 4.47 fold.

For `C=CCn1c(=O)c2cnc(Nc3ccc(N4CCN(C)CC4)cc3)nc2n1-c1cccc(C(C)(C)O)n1` [MK-1775], the “fold increase in IFN-β release” value was 4.54 fold.

With `O=C1NC(=O)/C(=C/c2cccc(C(F)(F)F)c2)S1` [SMI-4a] the “fold increase in IFN-β release” value was 0.84 fold.

With `NCC(=O)Nc1ccc(-n2nc(C(F)(F)F)cc2-c2ccc3c(ccc4ccccc43)c2)cc1` [OSU-03012 (AR-12)] the “fold increase in IFN-β release” value was 0.31 fold.

`CNC(=O)c1cc(Oc2ccc(NC(=O)Nc3cc(C(C)(C)C)nn3-c3ccc4ncccc4c3)c(F)c2)ccn1` [DCC-2036 (Rebastinib), Rebastinib] was tested, and the “fold increase in IFN-β release” value was 1.71 fold.

For `COc1ccc2cc(-c3nc(-c4ccc([S+](C)[O-])cc4)[nH]c3-c3ccncc3)ccc2c1` (centres unmarked) [Tie2 kinase inhibitor], the “fold increase in IFN-β release” value was 2.04 fold.

With `c1ccc(CC2=NCCN2)cc1` [Tolazoline HCl] the “fold increase in IFN-β release” value was 1.46 fold.
